We go through 57 compounds from PubChem BioAssay AID1259334 (Broad Institute, 2017).

Usually AC50 stands for the concentration giving half of the maximal activity seen.

Calls of active or inactive are those of the source. Rule as the data show it: active = AC50 below about 11 µM. Numbered stars: 1 amine (or outer) side, 2 acyl side, 3 side chain; on linkers, the order of the positions; unused ones are H or OH. Bridge positions count the residues as written; N and C are the ends. Square brackets hold non-standard residues; d marks the D form. Peptide text beside a SMILES is read from it. I, II: the chains in the order shown. Actinocin(9to1) = Cc1c2oc3c(C)ccc(C(=O)[*:1])c3nc-2c(C(=O)[*:2])c(N)c1=O; NMeV = CN[CH](C(=O)O)C(C)C; Sar = CNCC(=O)O

The assay relates to B cell line, TNFa signaling counterscreen reporter. Put plainly: TNFa pathway inhibition counter-screen, B-lineage cells – dose response (AID 1259334;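 also: cells stimulated with TNFa after compound preincubation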). (A counterscreen serves to expose hits that act by an unwanted route or on another target.)
`NCCOc1ccc(C23CC4CC(CC(C4)C2)C3)cc1`: the concentration at half-maximal activity (AC50) was 4.61 µM.

Consider `CC(C)CCCCCCCCCCCCC(=O)NCC(=O)NC1C(O)C(O)C(Nc2ncnc3nc[nH]c23)OC1C(O)CO` (configuration not stated), for which the AC50 was 0.00421 µM. To `CC[N+]1(C)CCC(O)(c2ccc(OC)cc2)C(C(=O)c2ccc(OC)cc2)C1` (configuration not stated) belongs 3.52 µM. To `CSc1ccc2c(c1)N(CCC1CCCCN1C)c1ccccc1S2` (configuration not stated) belongs 6.07 µM. Regarding `C[C@@H]1CN([C@@H](C)CO)C(=O)c2ccccc2-c2ccccc2CO[C@@H]1CN(C)Cc1ccc(Oc2ccccc2)cc1`, the AC50 was > 20 µM (inactive). To `CC1CC(C)C(=O)C(C(O)CC2CC(=O)NC(=O)C2)C1` (configuration not stated) belongs 0.115 µM; to `CC1CCCC=CC2CC(OC(=O)CN(C)C)CC2C(O)C=CC(=O)O1` (configuration not stated), 0.0509 µM.

Regarding `CCN(CC)CCCNc1nc2ccccc2c2[nH]c3ccc(OC)cc3c12`, the AC50 was 2.11 µM. Take `c1ccc2sc(-c3ccc4c(c3)OCO4)nc2c1`: the AC50 was 8.09 µM. For the compound `O=C1/C(=C/c2ccccc2)C[C@@]2(O)C3Cc4ccc(O)c5c4[C@@]2(CCN3CC2CC2)[C@H]1O5`, the AC50 is 1.34 µM. The result for `COCC(C)n1c(C)cc(C(=O)COC(=O)c2cccn2C)c1C` (configuration not stated) reads 0.76 µM. To `CCCCCCCCCCCCCCCC[n+]1ccccc1` belongs 0.119 µM; to `CC(C)c1ccc(NC(=O)Nc2nc(C(N)COCc3ccccc3)cs2)cc1` (configuration not stated), 1.78 µM; to `COc1ccc(/C=N/Nc2ncccc2[N+](=O)[O-])c(OC)c1`, 5.22 µM.

For the compound `COc1ccc(S(=O)(=O)Nc2ccc3c(c2)C(=O)N([C@@H](C)CO)C[C@H](C)[C@@H](CN(C)Cc2ccc(C(F)(F)F)cc2)OCCCC[C@@H](C)O3)cc1`, the AC50 was 7.51 µM. To `c1ccn2cc(-c3ccc4c(c3)OCCO4)nc2c1` belongs 9.69 µM. In the case of `C[C@H]1CN([C@@H](C)CO)C(=O)c2ccccc2-c2ccccc2CO[C@@H]1CN(C)Cc1ccccc1C(F)(F)F`, the AC50 was 7.26 µM. To `O=C(CCN1CCC(c2ccccc2)C1)c1ccc2c(c1)OCCO2` (configuration not stated) belongs 6.18 µM; to `COc1ccc(CNCCC(c2ccc(F)cc2)c2ccc(OC(C)C)cc2)cc1OC` (configuration not stated), 3.5 µM. The result for `CCC(=O)O[C@]1(C(=O)CCl)[C@@H](C)C[C@H]2[C@@H]3CCC4=CC(=O)C=C[C@]4(C)[C@@]3(F)[C@@H](O)C[C@@]21C` reads > 20 µM (inactive). Turning to `C[C@@H]1CCCCO[C@@H](CN(C)Cc2ccc(Cl)c(Cl)c2)[C@H](C)CN([C@H](C)CO)C(=O)c2cc(NS(=O)(=O)c3cccs3)ccc2O1`, the AC50 is 6.39 µM. Take `C=C1C(=O)O[C@H]2[C@H]1CC/C(C)=C/CC[C@@]1(C)O[C@@H]21`: the AC50 was 3.54 µM.

As to `CC(C)NC(=O)N1Cc2cc(C(=O)NC3Cc4ccccc4C3)nc(-c3cccc(-c4cccnc4)c3)c2[C@@H]1CCO`, the AC50 was 7.2 µM.

Consider `Fc1ccccc1CNCCC(Cc1ccccc1)c1ccc2c(c1)OCO2` (configuration not stated), for which the AC50 was 3.4 µM. To `C[C@@H]1CN([C@@H](C)CO)C(=O)c2c(c3ccccc3n2C)-c2ccccc2CO[C@@H]1CN(C)C(=O)Nc1ccccc1C(F)(F)F` belongs 7.57 µM. The result for `Cc1noc(C)c1S(=O)(=O)Nc1ccc2c(c1)C(=O)N([C@H](C)CO)C[C@@H](C)[C@H](CN(C)C(=O)Nc1cccc3ccccc13)OCCCC[C@@H](C)O2` reads > 20 µM (inactive). The result for `COc1ccc(C#Cc2ccc([C@@H]3[C@H](CO)N4CCCCN(C(=O)Nc5cccc(F)c5)C[C@@H]34)cc2)cc1` reads 4.57 µM; that for `CC(C)C1CC(N(C)C)=CC(=S)N1` (configuration not stated), 10.7 µM.

As for `O=S(=O)(CCSc1ccccn1)c1nc2ccccc2s1`, the AC50 was 5.13 µM. To `C[C@@H]1CN([C@H](C)CO)C(=O)c2c(c3ccccc3n2C)-c2ccccc2CO[C@@H]1CN(C)C(=O)c1cc(Cl)cc(Cl)c1` belongs 8.14 µM.

Regarding `O=C(C1CC1)N1C[C@@H]2N[C@H](C1)C2c1ccc(-c2cccc(F)c2)cc1` (some centres not stated), the AC50 was 5.96 µM.

Consider `CC1(C)C(=O)C=C[C@@]2(C)C1C=C[C@]1(C)C2CC[C@@]2(C)[C@H](c3ccoc3)OC(=O)[C@H]3O[C@]321` (some centres not stated), for which the AC50 was 4.98 µM. The result for `C[C@@H]1CN([C@@H](C)CO)C(=O)c2ccccc2-c2ccccc2CO[C@H]1CN(C)Cc1ccccc1C(F)(F)F` reads 7.43 µM; that for `c1ccc(OCCSc2nnc3sc4ccccc4n23)cc1`, 2.98 µM. Turning to `Oc1ccc2c(c1)OCC1(O)Cc3cc(O)c(O)cc3C21` (configuration not stated), the AC50 is 2.18 µM. To `C[C@H]1CN([C@@H](C)CO)C(=O)c2c(c3ccccc3n2C)-c2ccccc2CO[C@@H]1CN(C)C(=O)Nc1cccc(C(F)(F)F)c1` belongs 9.38 µM; to `Cc1ccnc(NC(=O)c2ccc(OCC3CCCO3)cc2)c1` (configuration not stated), 5.1 µM; to `N#CC(C#N)=NNc1ccc(OC(F)(F)F)cc1`, 7.15 µM. To `N#CC(C#N)=NNc1cccc(Cl)c1` belongs 9.25 µM; to `Cc1noc(C)c1S(=O)(=O)N(C)C[C@H]1OCc2ccccc2-c2c(n(C)c3ccccc23)C(=O)N([C@@H](C)CO)C[C@H]1C`, > 20 µM (inactive).

`COc1ccc2c3c([nH]c2c1)[C@H](CO)N(C(=O)Nc1ccc(F)cc1)CC31CCN(C(=O)c2ccccc2F)CC1`: the AC50 was 6.12 µM. To `Cc1ccc2nc(C(F)(F)F)c(C#N)c(N)c2c1` belongs 7.61 µM; to `Cc1ccc(CN2CC(C(=O)Nc3ncc(C)s3)CC2=O)cc1` (configuration not stated), 4.2 µM; to `CC(=O)OC1CC2(O)C3CCC4CC(O)CCC4(C)C3CCC2(C)C1C1=CC(=O)OC1` (configuration not stated), 0.839 µM. To `c1ccc(-c2ccc(-c3ccccn3)nn2)nc1` belongs 6.99 µM.

Take `COc1ccc2c3c([nH]c2c1)[C@H](CO)N(C(=O)Nc1ccc(F)cc1)CC31CN(Cc2cc(F)ccc2F)C1`: the AC50 was > 20 µM (inactive). As for `Cc1c2oc3c(C)ccc(C(=O)OC(C)C4NC(=O)C(C(C)C)N(C)C(=O)CN(C)C(=O)C5CCCN5C(=O)C(C(C)C)NC4=O)c3nc-2c(C(=O)OC(C)C2NC(=O)C(C(C)C)N(C)C(=O)CN(C)C(=O)C3CCCN3C(=O)C(C(C)C)NC2=O)c(N)c1=O` (configuration not stated) (I: cyclo([Sar][NMeV]TVP) / II: cyclo([Sar][NMeV]TVP); linker I:3-II:3 via Actinocin(9to1); configuration not given here), the AC50 is 0.00519 µM. The result for `O=C(NCCc1ccccc1)c1ccc2nccnc2c1` reads 7.65 µM; that for `C=C1C(=O)OC2C=C(CO)C3OC3C3OC3(C)CC(OC(=O)/C(=C/C)COC(C)=O)C12` (configuration not stated), 1.67 µM; that for `COc1cc(/C=N/n2cnnc2)ccc1OC(=O)c1ccncc1`, 8.26 µM. The result for `Cn1cnc([N+](=O)[O-])c1S(=O)(=O)Oc1cccc2ccccc12` reads 0.397 µM; that for `O=C1NC2c3c(Cl)sc(Cl)c3C(=O)C2O1` (configuration not stated), 4.18 µM; that for `C[C@@H]1CN([C@@H](C)CO)C(=O)c2c(c3ccccc3n2C)-c2ccccc2CO[C@H]1CN(C)Cc1ccccc1`, 5.53 µM.

`CC1CNCCN1S(=O)(=O)c1cccc2cnccc12` (configuration not stated): the AC50 is 7.79 µM.

Take `O=C(CNC(=O)c1ccco1)Nc1ccc2c(c1)OCCO2`: the AC50 is > 20 µM (inactive). As to `C[C@@H]1CN([C@@H](C)CO)C(=O)c2c(c3ccccc3n2C)-c2ccccc2CO[C@H]1CN(C)C(=O)Nc1ccccc1C(F)(F)F`, the AC50 is 8.9 µM. As for `C[C@H](CO)N1C[C@H](C)[C@H](CN(C)CC2CCCCC2)OCCCC[C@H](C)Oc2ccc(NC(=O)Nc3ccc(C(F)(F)F)cc3)cc2C1=O`, the AC50 was 7.26 µM.
